Measurements: US10927136B2, “Phosphorus prodrugs of pyrazolo-substituted pyrimidine sGC stimulators” (Cyclerion Therapeutics, Inc., priority 2016, dated 2021)
pEC50: −log10 of the molar value. Values after ≈ are worked out from the molar mass of the structure shown. Like-named read-outs stand apart in the source and are kept apart here.

Tests used:
[1] = molecular target: T1, soluble guanylate cyclase (sGC) (Homo sapiens, UniProt Q02108+Q02153); assay: sGC-HEK-cGMP assay with LC/MS detection; format: cell-based; settings: for pEC50: HEK293 cells, 10 μM DETA-NONOate, cGMP by LC/MS, read-out: Absolute EC50; for sGC agonism as compared to parent drug: HEK assay with LC/MS detection
T1 construct: endogenously expressing soluble guanylate cyclase (sGC); endogenous in cells; host or cells: HEK293
T1 sequence (Q02153 1-619): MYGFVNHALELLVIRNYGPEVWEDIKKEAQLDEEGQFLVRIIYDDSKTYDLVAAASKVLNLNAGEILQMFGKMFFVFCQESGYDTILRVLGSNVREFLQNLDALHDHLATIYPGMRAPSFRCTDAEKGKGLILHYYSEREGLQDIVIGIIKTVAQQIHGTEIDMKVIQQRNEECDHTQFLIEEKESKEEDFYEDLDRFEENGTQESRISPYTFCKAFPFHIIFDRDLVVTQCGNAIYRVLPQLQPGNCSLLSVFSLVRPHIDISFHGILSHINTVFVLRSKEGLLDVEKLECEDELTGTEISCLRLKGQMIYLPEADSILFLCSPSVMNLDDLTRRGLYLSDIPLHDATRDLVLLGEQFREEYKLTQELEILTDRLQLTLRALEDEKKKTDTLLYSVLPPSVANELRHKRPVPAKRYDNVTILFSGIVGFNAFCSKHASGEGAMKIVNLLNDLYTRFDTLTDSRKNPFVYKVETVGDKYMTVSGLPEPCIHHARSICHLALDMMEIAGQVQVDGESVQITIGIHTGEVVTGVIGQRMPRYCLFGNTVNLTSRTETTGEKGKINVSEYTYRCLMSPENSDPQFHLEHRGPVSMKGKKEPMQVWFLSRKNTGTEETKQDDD
T1 sequence (Q02108 1-690): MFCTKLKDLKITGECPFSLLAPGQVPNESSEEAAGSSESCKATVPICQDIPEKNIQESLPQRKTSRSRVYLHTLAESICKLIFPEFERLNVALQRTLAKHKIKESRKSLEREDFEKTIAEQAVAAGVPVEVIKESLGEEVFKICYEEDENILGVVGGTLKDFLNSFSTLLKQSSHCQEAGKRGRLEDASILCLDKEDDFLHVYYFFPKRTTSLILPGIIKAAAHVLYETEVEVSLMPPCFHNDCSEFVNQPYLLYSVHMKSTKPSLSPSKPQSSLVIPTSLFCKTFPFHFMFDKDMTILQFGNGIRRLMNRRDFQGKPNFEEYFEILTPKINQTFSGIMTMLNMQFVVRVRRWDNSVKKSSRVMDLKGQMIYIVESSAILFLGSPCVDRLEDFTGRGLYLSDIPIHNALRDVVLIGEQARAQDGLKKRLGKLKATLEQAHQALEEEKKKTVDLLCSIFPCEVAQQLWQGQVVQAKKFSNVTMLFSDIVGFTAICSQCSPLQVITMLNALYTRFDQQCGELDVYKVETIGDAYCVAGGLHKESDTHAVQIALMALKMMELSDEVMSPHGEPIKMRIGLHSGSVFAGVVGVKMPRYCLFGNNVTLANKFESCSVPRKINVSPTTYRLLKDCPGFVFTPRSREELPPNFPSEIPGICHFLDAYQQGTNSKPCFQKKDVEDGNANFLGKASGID
Experimental: Human embryonic kidney cells (HEK293), endogenously expressing soluble guanylate cyclase (sGC), were used to evaluate the activity of test compounds. Compounds stimulating the sGC enzyme should cause an increase in the intracellular concentration of cGMP. HEK 293 cells were seeded in Dulbecco's Modification of Eagle's Medium supplemented with fetal bovine serum (10% final) and penicillin (100 U/mL)/streptomycin (100 μg/mL) in a 50 μL volume at a density of 1.5×10^4 cells/well in a poly-D-lysine coated 384 well flat bottom plate. Cells were incubated overnight at 37° C. in a humidified chamber with 5% CO2. Medium was aspirated and cells were washed with 1×Hank's Buffered Saline Salt Solution (50 μL). Cells were then incubated for 15 minutes at 37° C. with 50 μL of a 0.5 mM 3-isobutyl-1-methylxanthine (IBMX) solution. The test article and Diethylenetriamine NONOate (DETA-NONOate) solutions (x μM concentration for test article solution and 10 μM concentration for DETA-NONOate solution; wherein x is one of the following concentrations)
were then added to the assay mixture and the resulting mixture was incubated at 37° C. for 20 minutes. After the 20 minute incubation, the assay mixture was aspirated and 10% acetic acid containing 150 ng/mL+3-cGMP (internal standard for LCMS) (50 μL) was added to the cells. The plate was incubated at 4° C. for 30 minutes in the acetic acid solution to stop the reaction and lyse the cells. The plates were then centrifuged at 1,000 g for 3 minutes at 4° C. and the supernatant transferred to a clean reaction plate for LCMS analysis.
cGMP concentrations were determined from each sample using the LCMS conditions below (Table 2) and calculated standard curve. The standard curve was prepared in 10% acetic acid with 150 ng/mL+3cGMP (isotopically labelled cGMP with a weight 3 units higher than wild type) with the following final concentrations of cGMP in ng/mL: 1, 5, 10, 50, 100, 250, 500, 1000, 2000.
Data were normalized to a high control using the following equation: 100*(Sample−Low Control)/(High Control−Low Control), where the low control is the average of 16 samples treated with 1% DMSO, and the high control is the average of 16 samples treated with 30 μM of Compound Y depicted below. Data were fit using a 4-parameter fit (log(agonist) vs. response—variable slope) using GraphPad Prism Software v.5. n=2 for all compounds. The Absolute EC50 was interpolated from the curve fit and is defined as the concentration at which a given compound elicits 50% of the high control response. Compounds failing to elicit a minimum response of 50% are reported as >30 μM. For compounds run in duplicate or n higher than 2, the result herein given is the geometric mean of the several results obtained.
sGC enzyme activity values in HEK cells, expressed as Absolute EC50 which is defined as the concentration at which a given compound elicits 50% of the high control response obtained with Compound Y, after normalization.

[2] = Thermodynamic solubility measurements; format: physicochemical; settings: aqueous buffer, pH 7, aqueous buffer, thermodynamic from solid
Experimental: Approximately 1 mg of test compound was weighed into 1.5 mL Eppendorf tubes and 1.5 mL of aqueous buffer of a given pH was added. The samples were vortexed and placed on a shaker at 150 RPM for 2-5 days. The samples were harvested and then centrifuged at 12 K RPM for 20 minutes. The supernatant was diluted twice with Acetonitrile (ACN) and analyzed by UPLC. To dilute the samples, 200 uL of supernatant was taken and discarded. Then, 400 uL of supernatant (with 200 uL intervals) was taken and added to 400 uL of acetonitrile (with 200 uL intervals).
UPLC conditions: Mobile Phase A: 0.1% TFA in Water; Mobile Phase B: 0.1% TFA in Acetonitrile; Column: Acquity BEH C18, 1.7 um, 2.1×50 mm; Injection Volume: 2-3 uL; Autosampler Temperature: Ambient; Column Temperature: 25° C.; Run Time: 10 minutes; Flow Rate: 0.45 mlJmin; Collected Wavelengths: 220 nm, 245 nm, 254 nm, 280 nm, PDA Spectrum (190-400 nm); Wavelength Used for Analysis: 254 nm

Row | pEC50 ([1]; prodrug) | solubility [2] [µg/mL] | pEC50 ([1]; Parent compound column) | Compound | sGC agonism as compared to parent drug [1]
1 | 4.89 | 66 to 1000 (≈ 107 to 1630 µM) | – | O=P(O)(O)OC(CNc1nc(-c2cc(-c3ccon3)n(Cc3ccccc3F)n2)ncc1F)(C(F)(F)F)C(F)(F)F [Compound I-1] | did not exhibit a high degree of sGC agonism
2 | 4.60 | 71 (≈ 110 µM) | – | O=P(O)(O)OCOC(CNc1nc(-c2cc(-c3ccon3)n(Cc3ccccc3F)n2)ncc1F)(C(F)(F)F)C(F)(F)F [Compound I-4] | did not exhibit a high degree of sGC agonism
3 | – | 2 to 3 (≈ 3.74 to 5.61 µM) | 6.66 | OC(CNc1nc(-c2cc(-c3ccon3)n(Cc3ccccc3F)n2)ncc1F)(C(F)(F)F)C(F)(F)F [Intermediate 3] | –
